Patent US11459315B2, “Modulators of methyl modifying enzymes, compositions and uses thereof” (Constellation Pharmaceuticals, Inc., priority 2017, dated 2022)

These compounds were tested on H3K27me3 mark in HeLa cells (EZH2) (assay: H3K27me3 Alpha Hela Assay (AlphaLISA)). Conditions: HeLa cell assay; Table 3 classes; read-out: EC50 Cellular Activity.
Format: cell-based
Outline: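 HeLa cells (1,000/well) treated with ten 3-fold compound doses for 72 h at 37 °C; lysates extracted and H3K27me3 detected by AlphaLISA with anti-K27me3 acceptor beads, biotinylated anti-H3 (3 nM) and streptavidin donor beads. EC50 from DMSO-normalized dose-response curves; duplicate plate assessed viability.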

SMILES | EC50
CSc1cc(C)[nH]c(=O)c1CNC(=O)c1c(C)n([C@H](C)C2OCC(NC(C)(C)C)CO2)c2ccccc12 (single isomer, unassigned) [drawing 223] | 25 to 125 nM
CSc1cc(C)[nH]c(=O)c1CNC(=O)c1c(C)n([C@H](C)C2OCC(NC(C)(C)C)CO2)c2ccccc12 (single isomer, unassigned) [drawing 224] | < 5 nM
Cc1cc(Cl)c(CNC(=O)c2c(C)n([C@H](C)C3OCC(NC4(C)COC4)CO3)c3ccccc23)c(=O)[nH]1 (single isomer, unassigned) [drawing 225] | > 125 nM
Cc1cc(Cl)c(CNC(=O)c2c(C)n([C@H](C)C3OCC(NC4(C)COC4)CO3)c3ccccc23)c(=O)[nH]1 (single isomer, unassigned) [drawing 226] | 5 to 25 nM

Same assay, conditions: Homo sapiens, HeLa, HeLa cell assay; Table 3 classes; read-out: EC50 Cellular Activity

SMILES | EC50
COc1cc(C)[nH]c(=O)c1CNC(=O)c1c(C)n([C@H](C)C2CCN(CC(C)(C)O)CC2)c2ccccc12 | > 125 nM
Cc1cc(C)c(CNC(=O)c2c(C)n([C@H](C)C3CCN(CC(F)(F)F)CC3)c3ccccc23)c(=O)[nH]1 | 25 to 125 nM
COc1cc(C)[nH]c(=O)c1CNC(=O)c1c(C)n([C@H](C)C2CCN(CC(F)(F)F)CC2)c2ccccc12 | 5 to 25 nM
Cc1cc(Cl)c(CNC(=O)c2c(C)n([C@H](C)C3CCOCC3)c3ccccc23)c(=O)[nH]1 | 25 to 125 nM
COC1CN(C2CCC([C@@H](C)n3c(C)c(C(=O)NCc4c(Cl)cc(C)[nH]c4=O)c4ccccc43)CC2)C1 (single isomer, unassigned) | 5 to 25 nM
COC1CN(C2CCC([C@@H](C)n3c(C)c(C(=O)NCc4c(C)cc(C)[nH]c4=O)c4ccccc43)CC2)C1 (single isomer, unassigned) | 5 to 25 nM
CSc1cc(C)[nH]c(=O)c1CNC(=O)c1c(C)n([C@H](C)C2CCC(N3CC(OC(F)F)C3)CC2)c2ncccc12 (single isomer, unassigned) | < 5 nM
CSc1cc(C)[nH]c(=O)c1CNC(=O)c1c(C)n([C@H](C)C2CCC(NC3(C)COC3)CC2)c2ccccc12 (single isomer, unassigned) [drawing 205] | < 5 nM
COc1cc(C)[nH]c(=O)c1CNC(=O)c1c(C)n([C@H](C)C2CCC(N3CC(OC)C3)CC2)c2ccccc12 (single isomer, unassigned) [drawing 217] | > 125 nM
COC1CN(C2CCC([C@@H](C)n3c(C)c(C(=O)NCc4c(SC)cc(C)[nH]c4=O)c4ccccc43)CC2)C1 (single isomer, unassigned) [drawing 219] | < 5 nM
Cc1cc(Cl)c(CNC(=O)c2c(C)n([C@H](C)C3OCC(NC(C)(C)C)CO3)c3ccccc23)c(=O)[nH]1 (single isomer, unassigned) [drawing 221] | 5 to 25 nM

Each compound was assayed against PRC2 containing wt EZH2 (Homo sapiens (Human), UniProt Q15910) (assay: EZH2 residence time assay (100-fold dilution of pre-formed enzyme-inhibitor complex)). Conditions: not given.
Format: biochemical
Experimental: EZH2 residence time assay: Compound residence times were assessed by monitoring the recovery of enzyme activity following a 100-fold dilution of pre-formed enzyme-inhibitor complex (dilution reaction), and comparing it to the activity of an undiluted control with the same final concentrations of all reagents (control reaction). Enzyme activity was measured by incorporation of ^3H-SAM into a biotinylated H3 peptide. […] For the control reaction, 0.202 nM PRC2 was pre-incubated with 1 μM activating peptide, 1.01 μM SAM, 1.01 μM ^3H-SAM, and compound at 6.06 times its Ki for 2 h in 138.6 μL of buffer, then the reaction was initiated by the addition of 1.4 μL 500 μM substrate peptide in water. Reactions were quenched at various time points spanning up to 10 hours, by transferring 8 μL aliquots from the reaction vessel to a plate containing 8 μL per well of STOP solution (50 mM Tris pH 8.5, 200 mM EDTA, 2 mM SAH). After the last time point, 12 μL of the quenched solutions were transferred to a streptavidin coated FlashPlate (PerkinElmer) containing 40 μL per well of STOP solution, incubated 1-8 h, washed, and read in a TopCount plate reader (PerkinElmer). A custom script was used to fit control reaction progress data to a straight line and dilution reaction progress data:
Where y is the product formed, t is the reaction time, vi is the initial velocity, vs is the steady state velocity, and kobs is the rate constant for the transition from the initial velocity phase of the curve to the steady state velocity phase of the curve. In fitting the dilution reaction progress data, vs was constrained to the slope of the line fitted to the control reaction progress data. The fitted value of kobs was then transformed into residence time:
Where τ is residence time, Ki is the inhibition constant, [EI] is the calculated equilibrium concentration of enzyme-inhibitor complex, [E] is the calculated equilibrium concentration of free enzyme, and [I] is the calculated equilibrium concentration of free inhibitor.

Sequence of PRC2 containing wt EZH2 (Q15910 whole entry): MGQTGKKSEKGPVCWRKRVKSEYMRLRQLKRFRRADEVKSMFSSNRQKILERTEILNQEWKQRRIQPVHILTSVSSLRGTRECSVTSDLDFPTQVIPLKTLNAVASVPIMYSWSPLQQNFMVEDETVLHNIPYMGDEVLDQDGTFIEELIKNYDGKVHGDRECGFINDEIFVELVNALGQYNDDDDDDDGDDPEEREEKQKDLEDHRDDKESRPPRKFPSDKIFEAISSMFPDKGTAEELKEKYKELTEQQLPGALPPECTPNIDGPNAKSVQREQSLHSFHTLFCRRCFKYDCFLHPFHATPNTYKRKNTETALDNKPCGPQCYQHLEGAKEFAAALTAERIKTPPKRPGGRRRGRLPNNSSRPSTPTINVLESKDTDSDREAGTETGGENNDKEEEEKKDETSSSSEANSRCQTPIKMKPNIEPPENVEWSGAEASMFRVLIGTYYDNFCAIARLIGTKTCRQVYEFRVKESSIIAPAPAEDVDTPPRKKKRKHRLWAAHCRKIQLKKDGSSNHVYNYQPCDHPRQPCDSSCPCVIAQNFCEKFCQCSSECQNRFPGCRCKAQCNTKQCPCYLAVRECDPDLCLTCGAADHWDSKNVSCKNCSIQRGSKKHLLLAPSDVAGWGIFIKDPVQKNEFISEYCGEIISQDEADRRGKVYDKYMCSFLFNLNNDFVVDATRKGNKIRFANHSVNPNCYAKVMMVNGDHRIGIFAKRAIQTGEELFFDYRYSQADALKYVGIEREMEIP
Sequence of PRC2 containing wt EZH2 (O75530 whole entry partner): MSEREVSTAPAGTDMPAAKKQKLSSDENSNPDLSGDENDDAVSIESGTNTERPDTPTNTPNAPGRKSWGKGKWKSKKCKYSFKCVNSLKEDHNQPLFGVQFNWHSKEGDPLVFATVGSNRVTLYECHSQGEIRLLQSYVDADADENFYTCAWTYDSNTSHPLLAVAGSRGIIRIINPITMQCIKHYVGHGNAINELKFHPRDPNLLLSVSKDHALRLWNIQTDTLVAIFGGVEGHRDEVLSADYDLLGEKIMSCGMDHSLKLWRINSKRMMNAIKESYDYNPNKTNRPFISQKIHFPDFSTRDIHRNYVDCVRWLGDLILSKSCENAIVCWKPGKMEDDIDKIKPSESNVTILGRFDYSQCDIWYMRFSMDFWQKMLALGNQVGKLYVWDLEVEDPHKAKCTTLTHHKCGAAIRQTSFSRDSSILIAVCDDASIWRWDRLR
Sequence of PRC2 containing wt EZH2 (Q15022 whole entry partner): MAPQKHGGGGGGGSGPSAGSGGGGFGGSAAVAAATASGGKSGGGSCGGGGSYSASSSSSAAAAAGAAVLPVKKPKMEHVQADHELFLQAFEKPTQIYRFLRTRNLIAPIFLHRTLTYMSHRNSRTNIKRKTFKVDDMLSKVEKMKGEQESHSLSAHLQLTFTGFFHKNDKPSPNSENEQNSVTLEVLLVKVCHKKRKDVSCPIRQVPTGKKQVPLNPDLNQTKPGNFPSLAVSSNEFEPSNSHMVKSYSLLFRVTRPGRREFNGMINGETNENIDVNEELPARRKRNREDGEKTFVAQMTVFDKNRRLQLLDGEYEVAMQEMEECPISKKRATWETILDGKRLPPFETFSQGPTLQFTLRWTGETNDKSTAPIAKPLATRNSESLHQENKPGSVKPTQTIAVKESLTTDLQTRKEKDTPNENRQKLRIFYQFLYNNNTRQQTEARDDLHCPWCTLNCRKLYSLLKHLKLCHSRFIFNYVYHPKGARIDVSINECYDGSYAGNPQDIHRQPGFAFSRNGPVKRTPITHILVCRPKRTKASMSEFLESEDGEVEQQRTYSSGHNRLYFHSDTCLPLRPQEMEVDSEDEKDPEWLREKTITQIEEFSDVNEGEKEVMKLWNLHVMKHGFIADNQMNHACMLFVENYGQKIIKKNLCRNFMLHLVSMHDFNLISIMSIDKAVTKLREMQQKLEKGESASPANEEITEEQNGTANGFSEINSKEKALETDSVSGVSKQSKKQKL
Sequence of PRC2 containing wt EZH2 (Q09028 whole entry partner): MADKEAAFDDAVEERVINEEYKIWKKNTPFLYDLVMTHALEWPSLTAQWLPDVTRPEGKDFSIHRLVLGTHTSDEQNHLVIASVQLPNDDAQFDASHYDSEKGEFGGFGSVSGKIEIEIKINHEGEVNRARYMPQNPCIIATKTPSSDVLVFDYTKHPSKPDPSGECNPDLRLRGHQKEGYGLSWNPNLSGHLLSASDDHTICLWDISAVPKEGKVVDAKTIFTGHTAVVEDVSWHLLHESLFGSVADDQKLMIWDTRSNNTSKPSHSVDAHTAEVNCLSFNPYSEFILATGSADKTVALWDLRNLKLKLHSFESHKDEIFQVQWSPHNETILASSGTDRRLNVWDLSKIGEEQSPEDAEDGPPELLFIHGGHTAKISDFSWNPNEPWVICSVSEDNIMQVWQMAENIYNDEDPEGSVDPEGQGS
Sequence of PRC2 containing wt EZH2 (Q6ZN18 whole entry partner): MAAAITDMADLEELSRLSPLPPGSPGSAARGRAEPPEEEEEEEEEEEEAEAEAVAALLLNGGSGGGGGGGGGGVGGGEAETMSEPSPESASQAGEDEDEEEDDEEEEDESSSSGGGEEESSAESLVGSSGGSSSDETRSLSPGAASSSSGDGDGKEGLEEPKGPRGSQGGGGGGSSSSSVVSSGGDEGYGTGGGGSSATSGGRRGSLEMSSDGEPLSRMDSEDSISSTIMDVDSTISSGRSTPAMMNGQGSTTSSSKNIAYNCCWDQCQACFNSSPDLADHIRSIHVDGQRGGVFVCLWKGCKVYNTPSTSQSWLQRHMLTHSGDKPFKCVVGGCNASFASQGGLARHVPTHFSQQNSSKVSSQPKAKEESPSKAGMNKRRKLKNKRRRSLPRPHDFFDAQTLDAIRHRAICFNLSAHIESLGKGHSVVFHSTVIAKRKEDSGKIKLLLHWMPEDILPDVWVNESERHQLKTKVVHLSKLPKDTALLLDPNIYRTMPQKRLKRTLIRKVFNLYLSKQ

SMILES | residence time
COc1cc(C)[nH]c(=O)c1CNC(=O)c1c(C)n([C@H](C)C2CCN(CC(C)(C)O)CC2)c2ccccc12 | < 30 min
Cc1cc(C)c(CNC(=O)c2c(C)n([C@H](C)C3CCN(CC(F)(F)F)CC3)c3ccccc23)c(=O)[nH]1 | < 30 min
Cc1cc(Cl)c(CNC(=O)c2c(C)n([C@H](C)C3CCOCC3)c3ccccc23)c(=O)[nH]1 | < 30 min
COC1CN(C2CCC([C@@H](C)n3c(C)c(C(=O)NCc4c(Cl)cc(C)[nH]c4=O)c4ccccc43)CC2)C1 (single isomer, unassigned) | 30 to 300 min
COC1CN(C2CCC([C@@H](C)n3c(C)c(C(=O)NCc4c(C)cc(C)[nH]c4=O)c4ccccc43)CC2)C1 (single isomer, unassigned) | 30 to 300 min
CSc1cc(C)[nH]c(=O)c1CNC(=O)c1c(C)n([C@H](C)C2CCC(NC3(C)COC3)CC2)c2ccccc12 (single isomer, unassigned) [drawing 205] | A (value of greater than 35 hours)
COc1cc(C)[nH]c(=O)c1CNC(=O)c1c(C)n([C@H](C)C2CCC(N3CC(OC)C3)CC2)c2ccccc12 (single isomer, unassigned) [drawing 217] | < 30 min
COC1CN(C2CCC([C@@H](C)n3c(C)c(C(=O)NCc4c(SC)cc(C)[nH]c4=O)c4ccccc43)CC2)C1 (single isomer, unassigned) [drawing 219] | A (value of greater than 35 hours)
CSc1cc(C)[nH]c(=O)c1CNC(=O)c1c(C)n([C@H](C)C2OCC(NC(C)(C)C)CO2)c2ccccc12 (single isomer, unassigned) [drawing 223] | D (a t value of less or equal than 0.5 hours)
CSc1cc(C)[nH]c(=O)c1CNC(=O)c1c(C)n([C@H](C)C2OCC(NC(C)(C)C)CO2)c2ccccc12 (single isomer, unassigned) [drawing 224] | A (value of greater than 35 hours)
Cc1cc(Cl)c(CNC(=O)c2c(C)n([C@H](C)C3OCC(NC4(C)COC4)CO3)c3ccccc23)c(=O)[nH]1 (single isomer, unassigned) [drawing 225] | D (a t value of less or equal than 0.5 hours)
Cc1cc(Cl)c(CNC(=O)c2c(C)n([C@H](C)C3OCC(NC4(C)COC4)CO3)c3ccccc23)c(=O)[nH]1 (single isomer, unassigned) [drawing 226] | B (a t value of greater than 5 hours but less or equal than 35 hours)

Same assay, conditions: read-out: Residence Time

SMILES | residence time
COc1cc(C)[nH]c(=O)c1CNC(=O)c1c(C)n([C@H](C)C2CCN(CC(F)(F)F)CC2)c2ccccc12 | 30 to 300 min
CSc1cc(C)[nH]c(=O)c1CNC(=O)c1c(C)n([C@H](C)C2CCC(N3CC(OC(F)F)C3)CC2)c2ncccc12 (single isomer, unassigned) | 300 to 2100 min
Cc1cc(Cl)c(CNC(=O)c2c(C)n([C@H](C)C3OCC(NC(C)(C)C)CO3)c3ccccc23)c(=O)[nH]1 (single isomer, unassigned) [drawing 221] | 30 to 300 min
